Entries after “also recorded” stand apart in the source; their conditions may differ. Like-named read-outs stand apart in the source and are kept apart here.
Legend:
hGSTP1-1 [1] = molecular target: T1, hGSTP1-1 (Homo sapiens, UniProt P09211); experiment: hGSTP1-1 enzyme activity/inhibition assay (CDNB-GSH conjugation, 340 nm); type: biochemical; conditions: recombinant hGSTP1-1, 25 °C; for Enzyme Inhibition (%) / inhibition at 100 µM: compound at final concentration of 100 μM; for IC50: CDNB/GSH assay, read-out: IC50 against hGSTP1-1
T1 construct: made in house; host or cells: E. coli BL21 (DE3)
Description: Determination of hGSTP1-1 activity was performed by monitoring the formation of the conjugate between CDNB and GSH and measuring the absorption at λ = 340 nm (ε = 9600 L·mol^−1·cm^−1) at 25 °C for 120 s, as described previously. One unit of enzyme activity is defined as the amount of enzyme that produces 1.0 μmol of product per minute under the assay conditions. Curcuminoids and monocarbonyl curcumin analogues were dissolved in DMSO (100 μΜ) and added to the assay mixture (the volume of DMSO was maintained at 2% v/v final concentration). The mixture was incubated at 25 °C for 1 min, prior to adding the enzyme sample. Initial velocities were determined in triplicates and were corrected for spontaneous reaction rates, when necessary. […] The IC50 values were determined from a graph of the remaining GST activity (%) against inhibitor concentration.
(§1) The computer program GraphPad Prism version 8 (GraphPad Prism Software, Inc., San Diego, CA, USA) was used for producing kinetic graphs and determining apparent kinetic parameters/constants and IC50 values.

hGSTP1-1 [2] = molecular target: T1, hGSTP1-1; set-up: method as in PMID 9463521, PMID 17046132; conditions: pH 7.4; presumably covalent binding to Cys-47; cited from earlier work
hGSTP1-1 [3] = molecular target: T1, hGSTP1-1; experiment: Circular dichroism study of enzyme conformation; conditions: 5 μΜ inhibitor; 0.1 mg/mL hGSTP1-1, 2.5 mM GSH (± 1 mM CDNB), pH 6.5
Description: CD studies were performed using a JASCO J-715 spectropolarimeter (Jasco Co., Tokyo, Japan) equipped with Peltier temperature controller (Jasco Co., Tokyo, Japan), at 25 °C and a wavelength range of 190–400 nm using a 1-mm-path length quartz cuvette. Each CD spectrum is the average of three scans at 200 nm·min^−1 and a resolution of 0.5 nm. The CD solutions were prepared by mixing the appropriate volumes of stock solutions to give final concentrations of 0.1 mg/mL of hGSTP1-1, 2.5 mM of GSH, 1 mM of CDNB, and 5 μΜ of inhibitor in potassium phosphate buffer (100 mM, pH 6.5) at room temperature, while CD spectra of plain solutions of GSH, CDNB, DM96, and DM62 at the same concentrations were also run as controls (see supporting information). The analysis of the CD data was performed using the OriginPro 9 program and the content of the secondary structure was calculated through the CDNN Circular Dichroism Spectroscopy Deconvolution software.

DU-145 cells = experiment: In vitro cytotoxicity, MTT colorimetric assay; type: cell-based, human; conditions: read-out: IC50 against DU-145
Description: DU-145 cells were grown in Dulbecco’s modified eagle medium (DMEM) growth medium of pH 7.4, supplemented with 10% fetal bovine serum (FBS), penicillin (100 U·mL^−1), glutamine (2 mM), and streptomycin (100 μg·mL^−1). Cell cultures were maintained in flasks and were grown at 37 °C in a humidified atmosphere of 5% CO2 in air. […] The subcultivation ratio was 1:2 to 1:5.
Cells were seeded in 96-well plates (8 × 10^3 cells/well in 100 μL culture medium) and grown overnight at 37 °C in a 5% CO2 incubator. Exponentially growing cells were incubated for 48 h with various concentrations ranging between 10^−3–10^−[…] of each derivative, and the final DMSO concentration never exceeded 0.2%. The medium was then removed and replaced with 100 μL of MTT solution (1 mg·mL^−1). After a 4 h incubation, the solution was aspirated, formazan crystals were solubilized in 100 μL of DMSO, and absorbance was recorded at 540 nm on a Tecan well plate reader. The results were expressed as % cell viability = (mean optical density (OD) of treated cells/mean OD of untreated cells) × 100.

hGSTP1-1 [4] = molecular target: T1, hGSTP1-1; experiment: Kinetic inhibition analysis of hGSTP1-1 (Lineweaver-Burk); type: biochemical; conditions: for Experimental Binding Free Energy ΔGexp: calculated from Ki; for Experimental Binding Free Energy ΔG′exp: calculated from Ki΄; for Type of Inhibition: pH 6.5, 25 °C; for Inhibition Constant Ki΄: binding to enzyme-substrate complex; for Ki: binding to free enzyme, read-out: Inhibition Constant Ki
Description: as §1
Initial velocities (25 °C) for the hGSTP1-1-catalyzed reaction with CDNB as a variable substrate were determined in reaction mixtures (1 mL total volume) containing potassium phosphate buffer (100 mM, pH 6.5), 2.5 mM GSH, and different concentrations of CDNB (typically 14–1000 μM) in the absence and presence of inhibitors (DM96, DM151, DM109, DMC, 0–50 μM). Initial velocities for the hGSTP1-1-catalyzed reaction with GSH as a variable substrate were determined in reaction mixtures (1 mL total volume) (25 °C) containing potassium phosphate buffer (100 mM, pH 6.5), 1 mM CDNB, and different concentrations of GSH (typically 37.5–3750 μΜ) in the absence and presence of inhibitors (DM96, DM151, DM109, Curcumin II, 0–50 μM).

[5] = system: native GST extracted from DU-145 cells; experiment: Inhibition of native GST activity in DU-145 cell lysate; type: biochemical, human; conditions: inhibitor at its IC50 for recombinant hGSTP1-1, 25 °C
Description: DU-145 cells were trypsinized, transferred to a Falcon tube, and centrifuged at 1500× g for 10 min. Subsequently, DMEM was removed and the cell pellet was resuspended in 1 mL of potassium phosphate buffer. The cells were lysed by sonication, the suspension was centrifuged at 13,000× g for 5 min, and the supernatant was collected.

[6] = Homo sapiens, DU-145, 48 h, MTT, 48 h incubation
[7] = variable substrate CDNB, 2.5 mM GSH
[8] = variable substrate GSH, 1 mM CDNB

T1 sequence (P09211 2-210 limits assumed): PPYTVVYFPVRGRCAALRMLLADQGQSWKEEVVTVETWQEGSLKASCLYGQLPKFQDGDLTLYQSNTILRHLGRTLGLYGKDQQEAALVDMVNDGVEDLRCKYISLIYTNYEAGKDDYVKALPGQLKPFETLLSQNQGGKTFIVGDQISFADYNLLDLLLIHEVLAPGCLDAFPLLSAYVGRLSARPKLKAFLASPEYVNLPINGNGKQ

inhibition at 100 µM (hGSTP1-1 [1]) | Compound | IC50 (hGSTP1-1 [1]) | Enzyme Inhibition (%) (hGSTP1-1 [1]; 100 µM) | Experimental Binding Free Energy ΔGexp (hGSTP1-1 [4]; variable substrate CDNB) | Experimental Binding Free Energy ΔGexp (hGSTP1-1 [4]; variable substrate GSH) | Ki (hGSTP1-1 [4]; variable substrate CDNB) | Ki (hGSTP1-1 [4]; variable substrate GSH) | also measured
 | 2,6-bis(3,4-dihydroxybenzylidene)cyclohexanone [DM57] |  |  |  |  |  |  | Enzyme Inhibition (%) (hGSTP1-1 [1]): 16.75 ± 3.61%
 | 2,6-dibenzylidenecyclohexanone [DM15] |  |  |  |  |  |  | Enzyme Inhibition (%) (hGSTP1-1 [1]): 66.23 ± 2.57%
 | COc1cc(/C=C/C(=O)CC(=O)/C=C/c2ccc(O)c(OC)c2)ccc1O [Curcumin] |  |  |  |  |  |  | Mode of inhibition of hGSTP1-1 (hGSTP1-1 [2]): irreversible inhibitor
8.5 ± 2.13% | COc1ccc(/C=C2\CCC/C(=C\c3ccc(OC)cc3)C2=O)cc1 [DM46, 2,6-bid(4-methoxybenzylidene)cyclohexanone] |  |  |  |  |  |  | 
8.4 ± 0.36% | O=C1/C(=C/c2ccc(F)cc2)CCC/C1=C\c1ccc(F)cc1 [DM62, (2E,6E)-2,6-bis(4-fluorobenzylidene)cyclohexanone] |  |  |  |  |  |  | Effect on CD spectrum / conformation of the enzyme (hGSTP1-1 [3]): does not cause the conformational changes observed with DM96
44.2 ± 3.06% | COc1ccc(/C=C/C(=O)/C=C/c2ccc(OC)c(OC)c2)cc1OC [DM95, (1E,4E)-1,5-bis(3,4-dimethoxyphenyl)penta-1,4-dien-3-one] |  |  |  |  |  |  | 
~95% | O=C(C=Cc1ccc(O)cc1)C=Cc1ccc(O)cc1 [DM96, 1,5-bis(4-hydroxyphenyl)penta-1,4-dien-3-one] | 5.45 ± 1.08 µM | 86.99 ± 1.88% | -7.71 kcal/mol | -7.71 kcal/mol | 3.67 µM | 3.69 µM | Effect on CD spectrum / conformation of the enzyme (hGSTP1-1 [3]): causes a great change in the CD spectrum; IC50 (DU-145 cells; [6]): 8.6 ± 1.07 µM; Experimental Binding Free Energy ΔG′exp (hGSTP1-1 [4]; variable substrate CDNB): -7.52 kcal/mol; Experimental Binding Free Energy ΔG′exp (hGSTP1-1 [4]; variable substrate GSH): -8.29 kcal/mol; Type of Inhibition (hGSTP1-1 [4]; [7]): mixed-type inhibitor; also recorded: Purely mixed; Inhibition Constant Ki΄ (hGSTP1-1 [4]; variable substrate CDNB): 4.97 ± 2.86 μΜ; Type of Inhibition (hGSTP1-1 [4]; [8]): partially mixed; also recorded: Partial mixed; Inhibition Constant Ki΄ (hGSTP1-1 [4]; variable substrate GSH): 1.45 ± 0.43 μΜ
40 ± 1.84% | COc1cc(C=C2CCCC(=Cc3ccc(O)c(OC)c3)C2=O)ccc1O [DM100, 2,6-bis(3-methoxy-4-hydroxy-benzylidene)cyclohexanone] |  |  |  |  |  |  | 
~95% | O=C(/C=C/c1ccc(F)cc1)/C=C/c1ccc(F)cc1 [DM109, (1E,4E)-1,5-bis(4-fluorophenyl)penta-1,4-dien-3-one] | 19.5 ± 1.04 µM | 79.06 ± 2.54% | ΔGexp = −6.66 kcal/mol | ΔGexp = −5.96 kcal/mol | 20.1 µM | 35.1 µM | IC50 (DU-145 cells; [6]): 44.6 ± 1.08 µM; IC50 (DU-145 cells; MTT, 48 h incubation): 46.1 ± 3.68 µM; Type of Inhibition (hGSTP1-1 [4]; [7]): Purely non-competitive; Type of Inhibition (hGSTP1-1 [4]; [8]): Purely non-competitive
54.8 ± 0.52% | O=C(/C=C/c1ccc(O)c(O)c1)/C=C/c1ccc(O)c(O)c1 [DM148, (1E,4E)-1,5-bis(3,4-dihydroxyphenyl)penta-1,4-dien-3-one] |  |  |  |  |  |  | 
 | O=C1C(=Cc2ccc(O)c(O)c2)CCCC1=Cc1ccc(O)c(O)c1 [DM151, 2,6-bis(3,4-dihydroxybenzylidene)cyclohexanone] | 11.2 ± 1.03 µM | 88.18 ± 3.65% | ΔGexp = −7.12 kcal/mol | ΔGexp = −7.43 kcal/mol | 9.55 µM | 5.79 µM | Enzyme Inhibition (%) [5]: did not show any inhibition at all; also recorded: No inhibition was observed; IC50 (DU-145 cells; [6]): 46.1 ± 3.68 µM; IC50 (DU-145 cells; MTT, 48 h incubation): 44.6 ± 1.08 µM; Type of Inhibition (hGSTP1-1 [4]; [7]): Purely non-competitive; Type of Inhibition (hGSTP1-1 [4]; [8]): Purely non-competitive
 | COc1cc(/C=C/C(O)=C/C(=O)/C=C/c2ccc(O)cc2)ccc1O [DMC, Demethoxycurcumin] | 37.7 ± 1.02 µM | 94.56 ± 0.25% | -7.66 kcal/mol | -5.91 kcal/mol | 3.99 µM | 68 µM | IC50 (DU-145 cells; Homo sapiens, DU-145, 48 h): 48.5 ± 1.09 µM; Experimental Binding Free Energy ΔG′exp (hGSTP1-1 [4]; variable substrate CDNB): -7.98 kcal/mol; Experimental Binding Free Energy ΔG′exp (hGSTP1-1 [4]; variable substrate GSH): -6.07 kcal/mol; Type of Inhibition (hGSTP1-1 [4]; variable substrate CDNB, 2.5 mM GSH, listed as Curcumin II): Partially mixed; Inhibition Constant Ki΄ (hGSTP1-1 [4]; variable substrate CDNB): 2.36 ± 1.37 μΜ; Type of Inhibition (hGSTP1-1 [4]; variable substrate GSH, 1 mM CDNB, listed as Curcumin II): Partially mixed; Inhibition Constant Ki΄ (hGSTP1-1 [4]; variable substrate GSH): 52.83 ± 12.25 μΜ
